# Measurements taken from ChEMBL document CHEMBL2424513, “Design, synthesis and biological studies of survivin dimerization modulators that prolong mitotic cycle” (Bioorg Med Chem Lett, 2013).
# Calls of active or inactive are those of the source. No cut-off for these calls is given here.
# How the values were obtained:
# [1] = target: Baculoviral IAP repeat-containing protein 5 (Homo sapiens) (UniProt O15392); assay: Modulation of GFP-tagged survivin dimerization in HUVEC assessed as defect in mitotic progression at 50 to 100 nM after 48 hrs by real-time video microscopy relative to control
# [2] = target: Baculoviral IAP repeat-containing protein 5 (Homo sapiens) (UniProt O15392); assay: Modulation of GFP-tagged survivin dimerization in human PC3 cells assessed as defect in mitotic progression at 50 to 100 nM after 72 hrs by real-time video microscopy; assay type: cell-based; settings: PC-3
# [3] = target: Baculoviral IAP repeat-containing protein 5 (Homo sapiens) (UniProt O15392); assay: Modulation of GFP-tagged survivin dimerization in HUVEC assessed as time length of mitosis at 100 nM after 48 hrs by real-time video microscopy (reference value: 51.2 +/- 2.3 mins)
# [4] = target: Baculoviral IAP repeat-containing protein 5 (Homo sapiens) (UniProt O15392); assay: Modulation of GFP-tagged survivin dimerization in HUVEC assessed as distorted, diffused or decondensed CPC organization at 50 to 100 nM after 48 hrs by real-time video microscopy relative to control
# [5] = target: Baculoviral IAP repeat-containing protein 5 (Homo sapiens) (UniProt O15392); assay: Modulation of GFP-tagged survivin dimerization in HUVEC assessed as defect in mitotic progression at 10 nM after 48 hrs by real-time video microscopy
# [6] = target: Baculoviral IAP repeat-containing protein 5 (Homo sapiens) (UniProt O15392); assay: Modulation of GFP-tagged survivin dimerization in human PC3 cells assessed as distorted, diffused or decondensed CPC organization at 50 to 100 nM after 72 hrs by real-time video microscopy relative to control; assay type: cell-based; settings: PC-3
# [7] = target: Baculoviral IAP repeat-containing protein 5 (Homo sapiens) (UniProt O15392); assay: Modulation of GFP-tagged survivin dimerization in HUVEC assessed as distorted, diffused or decondensed CPC organization at 10 nM after 48 hrs by real-time video microscopy relative to control
# [8] = target: Baculoviral IAP repeat-containing protein 5 (Homo sapiens) (UniProt O15392); assay: Modulation of GFP-tagged survivin dimerization in human PC3 cells assessed as defect in mitotic progression at 10 nM after 72 hrs by real-time video microscopy; assay type: cell-based; settings: PC-3
# [9] = target: Baculoviral IAP repeat-containing protein 5 (Homo sapiens) (UniProt O15392); assay: Modulation of GFP-tagged survivin dimerization in human PC3 cells assessed as distorted, diffused or decondensed CPC organization at 10 nM after 72 hrs by real-time video microscopy relative to control; assay type: cell-based; settings: PC-3
# [10] = target: Baculoviral IAP repeat-containing protein 5 (Homo sapiens) (UniProt O15392); assay: Modulation of GFP-tagged survivin dimerization in HUVEC assessed as reduction in cell number after 48 hrs by real-time video microscopy
# [11] = target: Baculoviral IAP repeat-containing protein 5 (Homo sapiens) (UniProt O15392); assay: Modulation of GFP-tagged survivin dimerization in HUVEC assessed as reduction in cell number at 50 to 100 nM by real-time video microscopy; settings: TDE = time-dependent effect
# [12] = target: Baculoviral IAP repeat-containing protein 5 (Homo sapiens) (UniProt O15392); assay: Modulation of GFP-tagged survivin dimerization in HUVEC assessed as reduction in cell number at 50 to 100 nM after 48 hrs by real-time video microscopy relative to control
# [13] = target: Baculoviral IAP repeat-containing protein 5 (Homo sapiens) (UniProt O15392); assay: Modulation of GFP-tagged survivin dimerization in human PC3 cells assessed as reduction in cell number at 50 to 100 nM after 72 hrs by real-time video microscopy relative to control; assay type: cell-based; settings: PC-3
# Baculoviral IAP repeat-containing protein 5 (Homo sapiens), sequence (O15392 whole entry, the tested form may be a part): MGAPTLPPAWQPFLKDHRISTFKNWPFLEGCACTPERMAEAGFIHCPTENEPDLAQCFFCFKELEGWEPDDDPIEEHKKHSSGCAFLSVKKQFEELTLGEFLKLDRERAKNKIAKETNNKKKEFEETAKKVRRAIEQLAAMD
Compound,Activity [1],Activity [2],TIME [3],Activity [4],Activity [5],Activity [6],Activity [7],Activity [8],fold change (FC) [1],Activity [9],fold change (FC) [2],Activity [10],Activity [11],Activity [12],Activity [13]
N#Cc1c(-c2ccccc2)cc(-c2cc(Cl)ccc2O)[nH]c1=O,inactive,inactive,1.04 h,–,–,–,–,–,–,–,–,–,–,–,–
N#Cc1c(-c2cc(OCc3ccccc3)cc(OCc3ccccc3)c2)cc(-c2cc(Cl)ccc2O)[nH]c1=O,inactive,inactive,2.57 h,Active,inactive,Active,inactive,inactive,2,inactive,2,Dose-dependent effect,tde,–,–
N#Cc1c(-c2cccc(OCc3ccccc3)c2)cc(-c2cc(Cl)cc(I)c2O)[nH]c1=O,Active,Active,–,Active,inactive,Active,inactive,inactive,–,inactive,–,Dose-dependent effect,tde,50%,50%
